Test results taken from US20240343717A1, “MICROBIOCIDAL PYRAZOLE DERIVATIVES” (SYNGENTA CROP PROTECTION AG, priority 2021, published 2024).

Assays:
[1] = tested on: Botryotinia fuckeliana (Botrytis cinerea); assay: Botryotinia fuckeliana (Botrytis cinerea) / liquid culture (gray mould); format: cell-based; conditions: growth inhibition photometrically 3-4 days after application, read-out: control of Botryotinia fuckeliana
Method: (§1) Example B2: Botryotinia fuckeliana (Botrytis cinerea)/Liquid Culture (Gray Mould) Conidia of the fungus from cryogenic storage are directly mixed into nutrient broth (Vogels broth). After placing a (DMSO) solution of test compound into a microtiter plate (96-well format), the nutrient broth containing the fungal spores is added. The test plates are incubated at 24° C. and the inhibition of growth is determined photometrically 3-4 days after application.

[2] = tested on: Monographella nivalis (Microdochium nivale); assay: Monographella nivalis (Microdochium nivale) / liquid culture (foot rot cereals); format: cell-based; conditions: growth inhibition photometrically 4-5 days after application, read-out: control of Monographella nivalis
Method: as §1, with “B9: Monographella nivalis (Microdochium nivale)/Liquid” for “B2: Botryotinia fuckeliana (Botrytis cinerea)/Liquid”, “(Foot Rot Cereals)” for “(Gray Mould)”, “(PDB potato dextrose” for “(Vogels”, “4-5” for “3-4”

Pyrenophora teres = Pyrenophora teres / barley / leaf disc preventative (net blotch); format: in vivo; conditions: foliar, barley leaf segments, inoculated 2 days after application
Method: Example B14: Pyrenophora teres/Barley/Leaf Disc Preventative (Net Blotch) Barley leaf segments cv. Hasso are placed on agar in a multiwell plate (24-well format) and sprayed with the formulated test compound diluted in water. The leaf segments are inoculated with a spore suspension of the fungus 2 days after application. The inoculated leaf segments are incubated at 20° C. and 65% rh under a light regime of 12 h light/12 h darkness in a climate cabinet and the activity of a compound is assessed as disease control compared to untreated when an appropriate level of disease damage appears in untreated check leaf segments (5-7 days after application).

[3] = tested on: Mycosphaerella graminicola (Septoria tritici); assay: Mycosphaerella graminicola (Septoria tritici) / liquid culture (Septoria blotch); format: cell-based; conditions: Zymoseptoria tritici, growth inhibition photometrically 4-5 days after application, read-out: control of Mycosphaerella graminicola
Method: as §1, with “B16: Mycosphaerella graminicola (Septoria tritici)/Liquid” for “B2: Botryotinia fuckeliana (Botrytis cinerea)/Liquid”, “(Septoria Blotch)” for “(Gray Mould)”, “(PDB potato dextrose” for “(Vogels”, “4-5” for “3-4”

Alternaria solani = Alternaria solani / tomato / leaf disc (early blight); format: in vivo; conditions: foliar, tomato leaf disks, sprayed 2 days before inoculation, compared to untreated control
Method: Example B1: Alternaria solani/Tomato/Leaf Disc (Early Blight) Tomato leaf disks cv. Baby are placed on agar in multiwell plates (24-well format) and sprayed with the formulated test compound diluted in water. The leaf disks are inoculated with a spore suspension of the fungus 2 days after application. The inoculated leaf disks are incubated at 23° C./21° C.

[4] = tested on: Glomerella lagenarium (Colletotrichum lagenarium); assay: Glomerella lagenarium (Colletotrichum lagenarium) / liquid culture (anthracnose); format: cell-based; conditions: Colletotrichum orbiculare, growth inhibition photometrically 3-4 days after application, read-out: control of Glomerella lagenarium
Method: as §1, with “B3: Glomerella lagenarium (Colletotrichum lagenarium)/Liquid” for “B2: Botryotinia fuckeliana (Botrytis cinerea)/Liquid”, “(Anthracnose)” for “(Gray Mould)”, “(PDB potato dextrose” for “(Vogels”, “measured” for “determined”

[5] = tested on: Mycosphaerella arachidis (Cercospora arachidicola); assay: Mycosphaerella arachidis (Cercospora arachidicola) / liquid culture (early leaf spot); format: cell-based; conditions: growth inhibition photometrically 4-5 days after application, read-out: control of Mycosphaerella arachidis
Method: as §1, with “B10: Mycosphaerella arachidis (Cercospora arachidicola)/Liquid” for “B2: Botryotinia fuckeliana (Botrytis cinerea)/Liquid”, “(Early Leaf Spot)” for “(Gray Mould)”, “(PDB potato dextrose” for “(Vogels”, “4-5” for “3-4”

Cn1cc(C(C)(CNC(=O)c2cc(-c3ccc(F)cc3F)on2)c2ncccc2Cl)cn1 (stereo not drawn) [Compound P-2, N-[2-(3-chloro-2-pyridyl)-2-(1-methylpyrazol-4-yl)propyl]-5-(2,4-difluorophenyl) isoxazole-3-carboxamide]
≥ 80%: inhibition of growth at 20 ppm [1] | inhibition of growth at 20 ppm [2] | pest or weed control at 200 ppm (Pyrenophora teres) | inhibition of growth at 20 ppm [3]

CCS(=O)(=O)c1cccc(C(C)(CNC(=O)c2nnc(-c3ccc(F)cc3F)s2)c2cnn(C)c2)n1 (stereo not drawn) [Compound P-3, 5-(2,4-difluorophenyl)-N-[2-(6-ethylsulfonyl-2-pyridyl)-2-(1-methylpyrazol-4-yl)propyl]-1,3,4-thiadiazole-2-carboxamide]
≥ 80%: pest or weed control at 200 ppm (Pyrenophora teres)

COc1ccnc(C(C)(CNC(=O)c2cc(-c3ccc(F)cc3F)on2)c2cnn(C)c2)c1 (stereo not drawn) [Compound P-7, 5-(2,4-difluorophenyl)-N-[2-(4-methoxy-2-pyridyl)-2-(1-methylpyrazol-4-yl)propyl]isoxazole-3-carboxamide]
≥ 80%: pest or weed control at 200 ppm (Alternaria solani) | inhibition of growth at 20 ppm [4] | inhibition of growth at 20 ppm [2] | inhibition of growth at 20 ppm [3]

Cn1cc(C(C)(CNC(=O)c2nnc(-c3ccc(F)cc3F)s2)c2ccc(Cl)cn2)cn1 (stereo not drawn) [Compound P-17, N-[2-(5-chloro-2-pyridyl)-2-(1-methylpyrazol-4-yl)propyl]-5-(2,4-difluorophenyl)-1,3,4-thiadiazole-2-carboxamide]
≥ 80%: inhibition of growth at 20 ppm [4] | inhibition of growth at 20 ppm [2] | inhibition of growth at 20 ppm [5] | inhibition of growth at 20 ppm [3]

Cn1cc(C(C)(CNC(=O)c2cc(-c3ccc(F)cc3F)on2)c2ccc(Cl)cn2)cn1 (stereo not drawn) [Compound P-20, N-[2-(5-chloro-2-pyridyl)-2-(1-methylpyrazol-4-yl)propyl]-5-(2,4-difluorophenyl) isoxazole-3-carboxamide]
≥ 80%: inhibition of growth at 20 ppm [4] | inhibition of growth at 20 ppm [2] | pest or weed control at 200 ppm (Pyrenophora teres) | inhibition of growth at 20 ppm [3]

Cn1cc(C(C)(CNC(=O)c2cc(-c3ccc(F)cc3F)on2)c2ccncn2)cn1 (stereo not drawn) [Compound P-23, 5-(2,4-difluorophenyl)-N-[2-(1-methylpyrazol-4-yl)-2-pyrimidin-4-yl-propyl]isoxazole-3-carboxamide]
≥ 80%: pest or weed control at 200 ppm (Alternaria solani) | pest or weed control at 200 ppm (Pyrenophora teres)

Cn1cc(C(C)(CNC(=O)c2cc(-c3ccc(Cl)cc3Cl)on2)c2cccc(Cl)n2)cn1 (stereo not drawn) [Compound P-28]
≥ 80%: inhibition of growth at 20 ppm [4] | inhibition of growth at 20 ppm [2] | inhibition of growth at 20 ppm [3]

Cn1cc(C(C)(CNC(=O)c2cc(-c3ccc(F)cc3F)on2)c2ccc(Br)cn2)cn1 (stereo not drawn) [Compound P-33, N-[2-(5-bromo-2-pyridyl)-2-(1-methylpyrazol-4-yl)propyl]-5-(2,4-difluorophenyl) isoxazole-3-carboxamide]
≥ 80%: inhibition of growth at 20 ppm [4] | inhibition of growth at 20 ppm [2] | inhibition of growth at 20 ppm [3]

CNC(=O)c1cccc(C(C)(CNC(=O)c2cc(-c3ccc(F)cc3F)on2)c2cnn(C)c2)n1 (stereo not drawn) [Compound P-45, 5-(2,4-difluorophenyl)-N-[2-[6-(methylcarbamoyl)-2-pyridyl]-2-(1-methylpyrazol-4-lyl)propyl]isoxazole-3-carboxamide]
≥ 80%: pest or weed control at 200 ppm (Pyrenophora teres)

Cn1cc(C(C)(CNC(=O)c2cc(-c3ccc(F)cc3F)on2)c2cccc(N)n2)cn1 (stereo not drawn) [Compound P-50, N-[2-(6-amino-2-pyridyl)-2-(1-methylpyrazol-4-yl)propyl]-5-(2,4-difluorophenyl) isoxazole-3-carboxamide]
≥ 80%: inhibition of growth at 20 ppm [1] | inhibition of growth at 20 ppm [4] | inhibition of growth at 20 ppm [2] | inhibition of growth at 20 ppm [5] | pest or weed control at 200 ppm (Pyrenophora teres) | inhibition of growth at 20 ppm [3]

CC(=O)Nc1cccc(C(C)(CNC(=O)c2cc(-c3ccc(F)cc3F)on2)c2cnn(C)c2)n1 (stereo not drawn) [Compound P-52, N-[2-(6-acetamido-2-pyridyl)-2-(1-methylpyrazol-4-yl)propyl]-5-(2,4-difluorophenyl) isoxazole-3-carboxamide]
≥ 80%: pest or weed control at 200 ppm (Pyrenophora teres)

Cn1cc(C(C)(CNC(=O)c2cc(-c3ccc(F)cc3F)on2)c2ncccc2Br)cn1 (stereo not drawn) [Compound P-53, N-[2-(3-bromo-2-pyridyl)-2-(1-methylpyrazol-4-yl)propyl]-5-(2,4-difluorophenyl) isoxazole-3-carboxamide]
≥ 80%: inhibition of growth at 20 ppm [2] | pest or weed control at 200 ppm (Pyrenophora teres)

COC(=O)c1ccc(C(C)(CNC(=O)c2cc(-c3ccc(F)cc3F)on2)c2cnn(C)c2)nc1 (stereo not drawn) [Compound P-55, methyl 6-[2-[[5-(2,4-difluorophenyl)isoxazole-3-carbonyl]amino]-1-methyl-1-(1-methylpyrazol-4-yl)ethyl]pyridine-3-carboxylate]
≥ 80%: inhibition of growth at 20 ppm [1] | inhibition of growth at 20 ppm [4] | inhibition of growth at 20 ppm [2] | inhibition of growth at 20 ppm [3]

CNC(=O)c1ccc(C(C)(CNC(=O)c2cc(-c3ccc(F)cc3F)on2)c2cnn(C)c2)nc1 (stereo not drawn) [Compound P-56, 5-(2,4-difluorophenyl)-N-[2-[5-(methylcarbamoyl)-2-pyridyl]-2-(1-methylpyrazol-4-yl)propyl]isoxazole-3-carboxamide]
≥ 80%: pest or weed control at 200 ppm (Pyrenophora teres)

CC(=O)c1ccc(C(C)(CNC(=O)c2cc(-c3ccc(F)cc3F)on2)c2cnn(C)c2)nc1 (stereo not drawn) [Compound P-57, N-[2-(5-acetyl-2-pyridyl)-2-(1-methylpyrazol-4-yl)propyl]-5-(2,4-difluorophenyl) isoxazole-3-carboxamide]
≥ 80%: inhibition of growth at 20 ppm [4] | inhibition of growth at 20 ppm [2] | inhibition of growth at 20 ppm [3]

C=C(C)COc1cc(Cl)nc(C(C)(CNC(=O)c2cc(-c3ccc(F)cc3F)on2)c2cnn(C)c2)c1 (stereo not drawn) [Compound P-68, N-[2-[6-chloro-4-(2-methylallyloxy)-2-pyridyl]-2-(1-methylpyrazol-4-yl)propyl]-5-(2,4-difluorophenyl) isoxazole-3-carboxamide]
≥ 80%: inhibition of growth at 20 ppm [1] | inhibition of growth at 20 ppm [4] | inhibition of growth at 20 ppm [2] | inhibition of growth at 20 ppm [5] | inhibition of growth at 20 ppm [3]

Cn1cc(C(C)(CNC(=O)c2cc(C3CC3)on2)c2cccc(Cl)n2)cn1 (stereo not drawn) [Compound P-78, N-[2-(6-chloro-2-pyridyl)-2-(1-methylpyrazol-4-yl)propyl]-5-cyclopropyl-isoxazole-3-carboxamide]
≥ 80%: inhibition of growth at 20 ppm [2] | inhibition of growth at 20 ppm [5] | inhibition of growth at 20 ppm [3]

Cn1cc(C(C)(CNC(=O)c2cc(C3CCCCC3)on2)c2cccc(Cl)n2)cn1 (stereo not drawn) [Compound P-79, N-[2-(6-chloro-2-pyridyl)-2-(1-methylpyrazol-4-yl)propyl]-5-cyclohexyl-isoxazole-3-carboxamide]
≥ 80%: inhibition of growth at 20 ppm [4] | inhibition of growth at 20 ppm [2] | inhibition of growth at 20 ppm [5] | pest or weed control at 200 ppm (Pyrenophora teres) | inhibition of growth at 20 ppm [3]

COc1ccc(C(C)(CNC(=O)c2cc(-c3ccc(F)cc3F)on2)c2cnn(C)c2)nn1 (stereo not drawn) [Compound P-105, 5-(2,4-difluorophenyl)-N-[2-(6-methoxypyridazin-3-yl)-2-(1-methylpyrazol-4-yl)propyl] isoxazole-3-carboxamide]
≥ 80%: pest or weed control at 200 ppm (Alternaria solani) | pest or weed control at 200 ppm (Pyrenophora teres)

Cn1ncc(C(CNC(=O)c2cc(-c3ccc(F)cc3F)on2)c2cccc(C#N)n2)c1Cl (stereo not drawn) [Compound P-117]
≥ 80%: inhibition of growth at 20 ppm [1] | inhibition of growth at 20 ppm [4] | inhibition of growth at 20 ppm [2] | inhibition of growth at 20 ppm [5] | inhibition of growth at 20 ppm [3]
